Laboratory results as given in publication PMC8011784, “Chronic peptide-based GIP receptor inhibition exhibits modest glucose metabolic changes in mice when administered either alone or combined with GLP-1 agonism” (PLoS ONE, 2021).

Assays:
Type in all cases: in vivo, mouse
DIO mice [1] = assay: Chronic GIPA-2 study: body weight and food intake in DIO mice; conditions: 28 days, HFD; liraglutide 0.2 mg/kg SC daily, GIPA-2 10 mg/kg SC daily; n = 10; vs vehicle (combination: vs liraglutide)
Protocol: (§1) For studying the chronic effects of GIPA-2, male C57BL/6JRj mice (n = 40) were fed a HFD (SSNIFF® diet #12492) for 43 weeks. DIO mice were randomized (n = 10 per group) based on baseline blood glucose and body weight. Liraglutide was dissolved in PBS plus 0.1% BSA (Vehicle1) and GIPA-2 in PBS (vehicle 2). Mice received one of the following four treatments daily for 28 days while still maintained on HFD: (1) vehicle 1 (SC) and vehicle 2 (SC); (2) 0.2 mg/kg liraglutide (SC) and vehicle 2; (3) vehicle 1 (SC) and 10 mg/kg GIPA-2 (SC); and (4) 0.2 mg/kg liraglutide (SC) plus 10 mg/kg GIPA-2 (SC). […] Fasted (4 hrs) blood glucose and insulin were measured on study day -4, 10 and 26. […] Blood glucose was measured before their daily dosing and at 0, 15, 30 60, 120, 180 and 240 min after glucose administration. […] Blood glucose was measured before their daily dosing and at 0, 15, 30 60, 120, 180 min after glucose administration. […]
Fig 2 Effects of chronic GIPR antagonism on body weight, food intake, and fasting blood glucose and insulin. […] Statistical analysis was calculated using two-way ANOVA with Tukey’s post-hoc test and one-way ANOVA for AUC with Dunnett’s post-hoc test. *: p< 0.05, **: p < 0.01, ***: p < 0.001, ****: p<0.0001 compared to vehicle.

DIO mice [2] = assay: Chronic GIPA-2 study: insulin tolerance test (ITT) in DIO mice; conditions: day 24; insulin 0.5 U/kg ip one hour after daily dose; liraglutide 0.2 mg/kg SC, GIPA-2 10 mg/kg SC; n = 10
Protocol: as §1
Fig 3 Effects of GIPA-1 and GIPA-2 on oral glucose tolerance and insulin responses in DIO mice. […] Statistical analysis was calculated using two-way ANOVA with Tukey’s post-hoc test and one-way ANOVA with Dunnett’s post-hoc test. *: p< 0.05, **: p < 0.01, ***: p < 0.001, ****: p<0.0001 compared to vehicle.

DIO mice [3] = assay: Chronic GIPA-2 study: circulating lipids, liver and fat depots in DIO mice; conditions: day 28, n = 10
Protocol: For studying the chronic effects of GIPA-2, male C57BL/6JRj mice (n = 40) were fed a HFD (SSNIFF® diet #12492) for 43 weeks. DIO mice were randomized (n = 10 per group) based on baseline blood glucose and body weight. Liraglutide was dissolved in PBS plus 0.1% BSA (Vehicle1) and GIPA-2 in PBS (vehicle 2). Mice received one of the following four treatments daily for 28 days while still maintained on HFD: (1) vehicle 1 (SC) and vehicle 2 (SC); (2) 0.2 mg/kg liraglutide (SC) and vehicle 2; (3) vehicle 1 (SC) and 10 mg/kg GIPA-2 (SC); and (4) 0.2 mg/kg liraglutide (SC) plus 10 mg/kg GIPA-2 (SC). GIPA-2 dose levels were selected based on doses shown to sufficiently antagonize insulinotropic actions of exogenous GIP in acute IPGTT studies (Fig 1J) adjusted for single daily dosing over the 4-week treatment period. Fasted (4 hrs) blood glucose and insulin were measured on study day -4, 10 and 26. An OGTT was performed on day 17. On the day of the OGTT the fasted animals (4 hrs) received their daily doses of vehicles, liraglutide and GIPA-2 one hour before receiving a glucose bolus (2 g/kg). Blood glucose was measured before their daily dosing and at 0, 15, 30 60, 120, 180 and 240 min after glucose administration. An insulin tolerance test (ITT) was performed on day 24. Fasting (4 hrs) mice received their daily doses of vehicles, liraglutide and GIPA-2 one hour before receiving insulin (0.5 U/kg, intraperitoneal injection). Blood glucose was measured before their daily dosing and at 0, 15, 30 60, 120, 180 min after glucose administration. Similar measurements were performed as in the GIPA-1 study. […]
Fasting blood glucose was measured using a BIOSEN c-Line glucose meter (EKF-Diagnostics), insulin was measured using the Meso Scale Diagnostics platform, TG and TC were measured using commercial kits (Roche Diagnostics) on the Cobas C-501 autoanalyzer (Roche), and FFA levels were measured using a Wako Chemicals kit on the Cobas C-501 autoanalyzer, all according to the manufacturers’ instructions. Homeostatic model assessment of insulin resistance (HOMA-IR) was calculated using the following equation: [fasting serum glucose (mmol/L) × fasting serum insulin (pmol/L) / 22.5] to assess insulin resistance.
Fig 4 The effect of GIPR antagonism alone or in combination with liraglutide on lipid homeostasis in DIO mice. […] Statistical analysis was calculated using one-way ANOVA with Dunnett’s post-hoc test. *: p< 0.05, **: p < 0.01, ***: p < 0.001, ****: p<0.0001 compared to vehicle.
Supplementary file pone.0249239.s002.tif: S2 Fig The effect of GIPR antagonists alone or in combination with liraglutide on lipid homeostasis in DIO mice. […] Statistical analysis was calculated using one-way ANOVA with Dunnett’s post-hoc test. *: p< 0.05, **: p < 0.01, ***: p < 0.001, ****: p<0.0001 compared to vehicle. […]

Substance: liraglutide
- body weight (DIO mice [1]): reduced both body weight and food intake
- cumulative food intake (DIO mice [1]): reduced both body weight and food intake
- insulin sensitivity (ITT) (DIO mice [2]): improved insulin sensitivity produced by liraglutide
- circulating total cholesterol (TC) (DIO mice [3]): significantly reduced circulating TC and liver TG concentrations
- liver TG (DIO mice [3]): significantly reduced circulating TC and liver TG concentrations
- plasma FFA (DIO mice [3]): no effect on either plasma TG or concentrations of circulating FFA
- plasma TG (DIO mice [3]): no effect on either plasma TG or concentrations of circulating FFA
